Experimental data taken from paper PMC6829050 (European journal of medicinal chemistry, 2019).

Target: T1, ChTS (Cryptosporidium parvum, UniProt Q27552)
T1 sequence (Q27552 1-521): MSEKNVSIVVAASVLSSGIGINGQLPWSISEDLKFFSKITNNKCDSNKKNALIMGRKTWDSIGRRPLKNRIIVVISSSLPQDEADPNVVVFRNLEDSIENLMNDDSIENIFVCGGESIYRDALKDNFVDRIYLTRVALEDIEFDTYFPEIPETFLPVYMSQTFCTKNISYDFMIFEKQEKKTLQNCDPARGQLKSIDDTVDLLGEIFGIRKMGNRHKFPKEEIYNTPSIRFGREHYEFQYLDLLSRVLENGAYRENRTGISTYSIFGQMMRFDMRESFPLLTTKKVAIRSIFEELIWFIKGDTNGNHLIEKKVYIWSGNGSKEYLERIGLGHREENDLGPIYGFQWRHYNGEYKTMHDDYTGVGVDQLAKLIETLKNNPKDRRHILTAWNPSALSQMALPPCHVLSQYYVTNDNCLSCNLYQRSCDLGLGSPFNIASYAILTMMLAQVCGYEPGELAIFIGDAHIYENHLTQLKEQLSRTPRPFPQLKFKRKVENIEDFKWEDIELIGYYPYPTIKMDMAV
Format: biochemical
Conditions: ChTS IC50 compared to compound 2

Row | Compound | loss (decrease) of potency | increase (enhancement) in potency [fold]
1 | Nc1nc2[nH]cc(Cc3ccc(C(=O)Nc4cccc(C(=O)O)c4)cc3)c2c(=O)[nH]1 [Compound 3, 3-(4-((2-amino-4-oxo-4,7-dihydro-3H-pyrrolo[2,3-d]pyrimidin-5-yl)methyl)benzamido)benzoic acid] | ~ 5 fold | 
2 | Nc1nc2[nH]cc(Cc3ccc(C(=O)Nc4ccc(C(=O)O)cc4)cc3)c2c(=O)[nH]1 [Compound 4, 4-(4-((2-amino-4-oxo-4,7-dihydro-3H-pyrrolo[2,3-d]pyrimidin-5-yl)methyl)benzamido)benzoic acid] | ~ 5 fold | 
3 | Nc1nc2[nH]cc(Cc3ccc(C(=O)Nc4ccccc4CCC(=O)O)cc3)c2c(=O)[nH]1 [Compound 6, 3-(2-(4-((2-amino-4-oxo-4,7-dihydro-3H-pyrrolo[2,3-d]pyrimidin-5-yl)methyl)benzamido)phenyl) propanoic acid] | ~ 6 fold | 
4 | CN(C(=O)c1ccc(Cc2c[nH]c3nc(N)[nH]c(=O)c23)cc1)c1ccccc1C(=O)O [Compound 9, 2-(4-((2-amino-4-oxo-4,7-dihydro-3H-pyrrolo[2,3-d]pyrimidin-5-yl)methyl)-N-methylbenzamido) benzoic acid] | ~ 11 fold | 
5 | Nc1nc2[nH]cc(Cc3ccc(/C=C/c4ccccc4C(=O)O)cc3)c2c(=O)[nH]1 [Compound 10, (E)-2-(4-((2-amino-4-oxo-4,7-dihydro-3H-pyrrolo[2,3-d]pyrimidin-5-yl)methyl)styryl)benzoic acid] | greater than 5 fold | 
6 | Nc1nc2[nH]cc(Cc3ccc(C(=O)NCc4ccccc4C(=O)O)cc3)c2c(=O)[nH]1 [Compound 11, 2-((4-((2-amino-4-oxo-4,7-dihydro-3H-pyrrolo[2,3-d]pyrimidin-5-yl)methyl)benzamido)methyl) benzoic acid] | 6 fold | 
7 | Nc1nc2[nH]cc(Cc3ccc(C(=O)N4CCCCC4C(=O)O)cc3)c2c(=O)[nH]1 (stereo not shown) [Compound 12, 1-(4-((2-amino-4-oxo-4,7-dihydro-3H-pyrrolo[2,3-d]pyrimidin-5-yl)methyl)benzoyl) piperidine-2-carboxylic acid] | greater than 25 fold | 
8 | Nc1nc2[nH]cc(Cc3ccc(C(=O)NC4CCCCC4C(=O)O)cc3)c2c(=O)[nH]1 (stereo not shown) [Compound 13, 2-(4-((2-amino-4-oxo-4,7-dihydro-3H-pyrrolo[2,3-d]pyrimidin-5-yl)methyl)benzamido)cyclohexan-1-carboxylic acid] | 3 fold | 
9 | COc1ccc(C(=O)O)c(NC(=O)c2ccc(Cc3c[nH]c4nc(N)[nH]c(=O)c34)cc2)c1 [Compound 16, 2-(4-((2-amino-4-oxo-4,7-dihydro-3H-pyrrolo[2,3-d]pyrimidin-5-yl)methyl)benzamido)-4-methoxy benzoic acid] | ~ 2.5 fold | 
10 | N#Cc1ccc(C(=O)O)c(NC(=O)c2ccc(Cc3c[nH]c4nc(N)[nH]c(=O)c34)cc2)c1 [Compound 17, 2-(4-((2-amino-4-oxo-4,7-dihydro-3H-pyrrolo[2,3-d]pyrimidin-5-yl)methyl)benzamido)-4-cyanobenzoic acid] |  | 2
11 | Nc1nc2[nH]cc(Cc3ccc(C(=O)Nc4cc(CO)ccc4C(=O)O)cc3)c2c(=O)[nH]1 [Compound 18, 2-(4-((2-amino-4-oxo-4,7-dihydro-3H-pyrrolo[2,3-d]pyrimidin-5-yl)methyl)benzamido)-4-(hydroxymethyl)benzoic acid] | ~ 9 fold | 
12 | COCc1ccc(C(=O)O)c(NC(=O)c2ccc(Cc3c[nH]c4nc(N)[nH]c(=O)c34)cc2)c1 [Compound 19, 2-(4-((2-amino-4-oxo-4,7-dihydro-3H-pyrrolo[2,3-d]pyrimidin-5-yl)methyl)benzamido)-4-(methoxymethyl)benzoic acid] | ~ 3.5 fold | 
13 | COCc1cccc(C(=O)O)c1NC(=O)c1ccc(Cc2c[nH]c3nc(N)[nH]c(=O)c23)cc1 [Compound 21, 2-(4-((2-amino-4-oxo-4,7-dihydro-3H-pyrrolo[2,3-d]pyrimidin-5-yl)methyl)benzamido)-3-(methoxymethyl)benzoic acid] | greater than 5 fold | 
14 | COc1ccc(NC(=O)c2ccc(Cc3c[nH]c4nc(N)[nH]c(=O)c34)cc2)c(C(=O)O)c1 [Compound 22, 2-(4-((2-amino-4-oxo-4,7-dihydro-3H-pyrrolo[2,3-d]pyrimidin-5-yl)methyl)benzamido)-5-methoxybenzoic acid] | greater than 5 fold | 
15 | COCCOc1cc(OC)cc(-c2ccc(Cc3c[nH]c4nc(N)[nH]c(=O)c34)cc2)c1 [Compound 26, 2-amino-5-((3’-methoxy-5’-(2-methoxyethoxy)-[1,1’-biphenyl]-4-yl)methyl)-3,7-dihydro-4H-pyrrolo [2,3-d]pyrimidin-4-one] | ~ 5 fold | 
16 | COc1cc(C(=O)O)cc(-c2ccc(Cc3c[nH]c4nc(N)[nH]c(=O)c34)cc2)c1 [Compound 27, 4’-((2-amino-4-oxo-4,7-dihydro-3H-pyrrolo[2,3-d]pyrimidin-5-yl)methyl)-5-methoxy-[1,1’-biphenyl]-3-carboxylic acid] | greater than 25 fold | 

Same assay, conditions: compared to compound 2

Row | Compound | change in ChTS potency (in words)
17 | Nc1nc2[nH]cc(Cc3ccc(C(=O)Nc4ccccc4CC(=O)O)cc3)c2c(=O)[nH]1 [Compound 5, 2-(2-(4-((2-amino-4-oxo-4,7-dihydro-3H-pyrrolo[2,3-d]pyrimidin-5-yl)methyl)benzamido)phenyl) acetic acid] | small increase in potency
18 | Nc1nc2[nH]cc(Cc3ccc(C(=O)Nc4cc(Cl)ccc4C(=O)O)cc3)c2c(=O)[nH]1 [Compound 14, 2-(4-((2-amino-4-oxo-4,7-dihydro-3H-pyrrolo[2,3-d]pyrimidin-5-yl)methyl)benzamido)-4-chloro benzoic acid] | small loss of potency

Tested on: ChTS over the hTS enzyme
Conditions: inhibition activity; cited from earlier work

Row | Compound | selectivity for the ChTS over the hTS enzyme [fold]
19 | 2-amino-4-oxo-4,7-dihydro-pyrrolo[2,3-d]pyrimidin-methyl-phenyl-L-glutamic acid [Compound 1] | 6
